Among the data in publication PMC6691788, “Design and synthesis of phthalazine-based compounds as potent anticancer agents with potential antiangiogenic activity via VEGFR-2 inhibition” (Journal of Enzyme Inhibition and Medicinal Chemistry, 2019) are activity values, retold here.

Each structure is given as a SMILES string.

Common to all, as to experiment: NCI 60 cell panel SRB screen
For assay [1], the system named is RXF 393. It is filed as cell-based. Particulars: Homo sapiens; RXF 393, single dose 10 μM; read-out: percent cell growth promotion.
In assay [2] the test system is DU-145. It is filed as cell-based. Particulars: Homo sapiens; DU-145, single dose 10 μM; read-out: percent cell growth promotion.
Assay [3] relates to HL-60(TB). It is filed as cell-based. The settings on record: Homo sapiens, single dose 10 μM, read-out: percent cell growth promotion.
Assay [4] concerns COLO 205. Type of assay: cell-based. The settings on record: Homo sapiens; COLO 205, single dose 10 μM; read-out: percent cell growth promotion.
The test system of assay [5] is HCC-2998. Type of assay: cell-based. The settings on record: Homo sapiens; HCC-2998, single dose 10 μM; read-out: percent cell growth promotion.
Assay [6] has as its system OVCAR-8. It is filed as cell-based. The settings on record: Homo sapiens; OVCAR-8, single dose 10 μM; read-out: percent cell growth promotion.
The test system of assay [7] is 786-0. Type of assay: cell-based. Particulars: Homo sapiens; 786-0, single dose 10 μM; read-out: percent cell growth promotion.
In assay [8] the test system is SK-MEL-28. Type of assay: cell-based. Particulars: Homo sapiens, SK-MEL-28, read-out: percent cell growth promotion.
Assay [9] has as its system M14. Type of assay: cell-based. The settings on record: Homo sapiens, M14, read-out: percent cell growth promotion.
Assay [10] deals with SNB-19. It is filed as cell-based. Particulars: Homo sapiens; SNB-19, single dose 10 μM; read-out: percent cell growth promotion.
The subject of assay [11] is HCT-15. It is filed as cell-based. Particulars: Homo sapiens; HCT-15, single dose 10 μM; read-out: percent cell growth promotion.
The test system of assay [12] is NCI-H226. Type of assay: cell-based. The settings on record: Homo sapiens; NCI-H226, single dose 10 μM; read-out: percent cell growth promotion.
In assay [13] the test system is HOP-62. It is filed as cell-based. The settings on record: Homo sapiens; HOP-62, single dose 10 μM; read-out: percent cell growth promotion.
For assay [14], the system named is MALME-3M. It is filed as cell-based. The settings on record: Homo sapiens, Malme-3M, read-out: percent cell growth promotion.
The subject of assay [15] is A498. It is filed as cell-based. Particulars: Homo sapiens; A498, single dose 10 μM; read-out: percent cell growth promotion.
The subject of assay [16] is SR. Type of assay: cell-based. The settings on record: Homo sapiens, single dose 10 μM, read-out: percent cell growth promotion.
Assay [17] has as its system CAKI-1. It is filed as cell-based, human. The settings on record: Homo sapiens; CAKI-1, single dose 10 μM; read-out: percent cell growth promotion.
In assay [18] the test system is BT-549. It is filed as cell-based. Particulars: Homo sapiens, BT-549, read-out: percent cell growth promotion.
For assay [19], the system named is PC-3. Type of assay: cell-based. Particulars: Homo sapiens; PC-3, single dose 10 μM; read-out: percent cell growth promotion.

Take `Cc1nnc(Nc2ccc(NC(=O)c3ccc(Cl)cc3)cc2)c2ccccc12` [Compound 5d, 4-Chloro-N-(4–(4-methylphthalazin-1-ylamino)phenyl)benzamide]: the activity at 10 µM was found to be 98.7% in assay [1]; 102% in assay [2]; 103% in assay [3]; 90.3% in assay [4]; 125% in [5]; 93.1% in [6]. Also, the activity at 10 µM in assay [7] was determined as 109%; in assay [8], 106%; in assay [9], 97.1%; in assay [10], 92%; in assay [11] it was 101%; in assay [12] it was 76.3%. For the same compound, the activity at 10 µM in [13] came out at 88.8%; in [14], 99%; in [15], 88.9%; in assay [16] it was 86.3%; in assay [17] it was 86.3%; in assay [18] it was 92.2%. Moreover, the activity at 10 µM in [19] worked out at 72.6%.

On to `O=C(Nc1ccc(Nc2nncc3ccccc23)cc1)c1ccc(Cl)cc1` [Compound 5b, 4-Chloro-N-(4-(phthalazin-1-ylamino)phenyl)benzamide], for which the activity at 10 µM came to 115% in assay [1]; 114% in [2]; 103% in assay [3]; 104% in [4]; 113% in assay [5]; 96.2% in [6]. Also, the activity at 10 µM is 107% in assay [7]; 114% in assay [8]; 99.7% in [9]; 104% in [10]; 109% in assay [11]; 77.9% in assay [12]. The activity at 10 µM in assay [13] turned out to be 91.8%; in assay [14], 99.6%; in assay [15] it was 98.7%; in assay [16] it was 95%; in assay [17], 94.6%; in [18], 107%. Moreover, the activity at 10 µM in [19] was 91.6%.
